The nature of data set [1]: Stability test of water lotion formulation of phytosphingosine liposome: size and sedimentation on storage at R.T. and low temperature. Type of data set: physicochemical. Particulars: dissolved using an acid only such as lactic acid; as time went by and at low temperatures. Here is the method:
For a liposome solution containing 4 wt. % of phytosphingosine prepared according to Examples 3 and 7 and a solution in which the liposome solution was diluted so as to make a final concentration of phytosphingosine be 0.5% in a water lotion product, it was examined a stability of phytosphingosine liposome in water lotion formulation, based on sizes and sedimentation states as time went by and sizes and sedimentation states when storing at R.T. and a low temperature, respectively. Water lotion formulations used in the above test are as follows. The unit is wt. %. In water lotion formulations of liposome containing phytosphingosine, results of size variations as time went by are as follows. The unit is nm.

The conditions of data set [2]: cited from earlier work.

Data on 1 compound can be found in patent publication US20070104774A1, “Method for preparing phytosphingosine liposome composition” (priority 2003, published 2007).

On to `CCCCCCCCCCCCCC[C@@H](O)[C@@H](O)[C@@H](N)CO` [phytosphingosine], for which, in data set [1], the behaviour on storage result is listed as “recrystallized”. Moreover, the “solubility in isocetyl alcohol” value in data set [2] (isocetyl alcohol solvent) is reported as 1 wt. %. Besides, in data set [2] (water), the solubility in water result was “never dissolved in water”.
